Data reported in US20250268870A1, “SMALL MOLECULE INDUCERS OF CARDIOMYOCYTES TO IMPROVE CARDIAC STRUCTURE AND FUNCTION” (UNIVERSITY OF MARYLAND, BALTIMORE, priority 2022, published 2025).

How the values were obtained:
[1] = tested on: iDCM-CMs; experiment: PCNT / MTOC localization (centriolar, split, perinuclear) in C19-treated iDCM-CMs, quantitated by a blinded observer; assay type: cell-based, human; conditions: for initiation of the perinuclear MTOC: iDCM-CMs (cDCM-CMs) treated with C19
[2] = tested on: iDCM-CMs; experiment: Sarcomere formation in C19-treated iDCM-CMs (confocal imaging); assay type: cell-based, human; conditions: C19-treated iDCM-CMs vs untreated iDCM-CMs
[3] = tested on: iDCM-CMs; experiment: Cell shortening (contractility) on Matrigel mattress, edge detection; assay type: cell-based, human
[4] = tested on: CMs; conditions: previously shown; cited from earlier work
[5] = tested on: RTTN; experiment: Knockdown of RTTN in zebrafish embryos: incidence of pericardial edema; assay type: in vivo; conditions: zebrafish embryos at 48 hours post-fertilization; Vehicle=8.4%
Experimental: Single mating pairs were bred overnight, and embryos were kept at 28.5° C., consistent with standard practices. Injections were performed using an Eppendorf™ FemtoJet 4i microinjector. Needles were pulled using a Sutter Instrument Co. Flaming/Brown Micropipette Puller Model P-97 with filaments from World Precision Instruments (Item #TW100F-4) (heat=90, pull=30, and velocity=7). The translational blocking morpholino oligonucleotide 5′-[…]-3′ (SEQ ID NO: 41) was purchased from GeneTools™. mRNA was generated from pcDNA-dCas9 (Addgene™) using the mMESSAGE mMACHINE T7 ULTRA Transcription Kit from Invitrogen™. Alt-R CRISPR-Cas9 sgRNA, sgRNA #1: 5′-[…]-3 (SEQ ID NO:42) and sgRNA #2: 5′-[…]-3′ (SEQ ID NO:43) were purchased from Integrated DNA Technologies. Wild-type NHGRI embryos were injected at the 1-2 cell stage with MO (6 ng) or dCas9 mRNA (1 ng) with or without the CRISPRi sgRNA (0.5 ng). At 8 hours post fertilization (hpf), E3 water was replaced with 0.003% 1-phenyl-2-thiourea (PTU) in E3, and the embryos remained in PTU until they were phenotyped for cardiac edema, and heart morphology at 48 hpf.

| Compound | initiation of the perinuclear MTOC [1] | initiation of the perinuclear MTOC ([1]; listed as C192) | PCNT perinuclear, % of CMs ([1]; iDCM-CMs + 10 μM C19 for 48 hours from D30, D32 CMs, control-CMs 23.1%, untreated iDCM-CMs 7.6%, p=0.0082) [%] | sarcomere formation [2] | cell shortening versus healthy control-CMs ([3]; D40 C19-treated iDCM-CMs vs control-CMs, p=0.682 (NS)) | contractility (% cell shortening) ([3]; D40 C19-treated iDCM-CMs vs untreated iDCM-CMs, p=0.001) | centrosome reduction in CMs [4] | embryos with large pericardial edema [5] [%] |
| --- | --- | --- | --- | --- | --- | --- | --- | --- |
| OCCCCOc1nsnc1-c1ccc(Cl)c(Cl)c1 [C19] | improved initiation of the perinuclear MTOC | restored initiation of the perinuclear MTOC | 23.6 | improved sarcomere formation | comparable levels of cell shortening | significantly improved | induce centrosome reduction | – |
| MO: translational blocking morpholino oligonucleotide 5′-TCTTTATGAGTGACGATAACTCCAT-3′ (SEQ ID NO: 41) against zebrafish RTTN (all phosphorodiamidate morpholino (PMO)) | – | – | – | – | – | – | – | 45.6 |
